US10954258B2, “STAT3 dimerization inhibitors” (H. LEE MOFFITT CANCER CENTER AND RESEARCH INSTITUTE, INC., priority 2012, dated 2021)

Experiments:
[1] = system: P-STAT3 in the nucleus of MDA-MB-468 cells; experiment: P-STAT3 nuclear accumulation by immunofluorescence; type: cell-based, human
Procedure: MDA-MB-468 cells were plated at 4000 cells/well in 8-chamber slide. […] Cells were fixed, washed, and permeabilized as describe above. Specimens were then blocked in 1% bovine serum albumin (BSA) for 30 min and incubated with anti-pSTAT3 (Cell Signaling), antibody at 1:50 dilution at 4° C. overnight. Subsequently, cells were rinsed 4-5 times in PBS, incubated with Alexa Fluor secondary antibody for 1 hour at room temperature in the dark. Specimens were then washed 5 times with PBS, covered with cover slides with [sequence] mounting medium containing DAPI (Vector Lab, Inc., Burlingame, Calif.), and examined immediately under Zeiss Upright Fluorescence Microscope (Zeiss, Thornwood, N.Y., USA).

[2] = system: STAT3-responsive promoter-firefly luciferase reporter (pLucTKS3); experiment: luciferase reporter assay, STAT3-responsive promoter; type: cell-based, human
Procedure: MDA-MB-468 cells were plated into 12-well plate with 4×10^5 cells per well. The cells were transiently transfected with pLucSRE, pLucTKS3 or STAT3-C with β-gal and then were treated with vehicle, S3I-1756 or S3I-1757 for 48 hours. Then cytosolic extracts of equal total protein were prepared from S3I-1757-treated or -untreated and analyzed for luciferase activity using a TD-20/20 luminometer (Turner Designs, Sunnyvale, Calif., USA) described by us previously.
To this end, MDA-MB-468 cells were transiently co-transfected with a STAT3-responsive promoter-firefly luciferase reporter (pLucTKS3) and 3-gal reporter used to normalize the transfection efficacy. To determine the selectivity of S3I-1757 to suppress STAT3-dependent over STAT3-independent transcriptional activation, MDA-MB-468 cells were also co-transfected with SRE promoter-renilla luciferase reporter (pLucSRE) and β-gal reporter. […] STAT3-C spontaneously dimerizes via disulfide bonds in the absence of tyrosine phosphorylation and is therefore not predicted to be inhibited by a small molecule that is designed to mimic phosphotyrosine binding.

Question: Which results are given for `O=C(O)c1cc(N(Cc2ccc(C3CCCCC3)cc2)C(=O)c2ccc(Oc3ccccc3)cc2)ccc1O` [Compound 20g, 5-(N-(4-Cyclohexylbenzyl)-4-phenoxybenzamido)-2-hydroxybenzoic acid]?
Answer: levels of p-STAT3 in the nucleus ([1]; 2 hours and 4 hours): dramatically decreased; P-STAT3 nuclear accumulation ([1]; 18 hours, various concentrations): inhibited P-STAT3 nuclear accumulation in a concentration-dependent manner starting at 50 μM; STAT3-dependent luciferase activity (pLucTKS3) ([2]; MDA-MB-468, 48 hours): less luciferase activity; STAT3-dependent transcriptional activity in cells transfected with STAT3-C ([2]; MDA-MB-468 transfected with STAT3-C): rescued from the S3I-1757 inhibition
